Tested on: subjects with major depressive disorder (MDD) who were inadequate responders to citalopram
Test: SDS (Sheehan Disability Scale), Phase 2b add-on trial
Type: in vivo, human
Conditions: for SDS Difference vs placebo / SDS Adj. Mean change: ITT; for SDS Difference vs placebo: Week 8 to Week 16 LOCF; for SDS Adj. Mean change: change from Week 8 (double-blind baseline) to Week 16 LOCF, add-on to citalopram
Source text: The Sheehan Disability Scale (SDS) is widely used not only in psychiatry but also in many other chronic medical illnesses because of its generic design. It measures impairment in functioning. The scale generates 4 scores: a work disability score, a social life disability score, a family life disability score and a total score. A total score is generated through addition of the 3 individual scores (work: social life: family life). The maximum possible score is 30. In more detail, a multi-center double-blind, randomized, placebo-controlled, parallel group, flexible dose titration study of TC-5214 as adjunctive therapy in subjects with major depressive disorder (MDD) who were inadequate responders to citalopram was conducted in centers in the US and India. The study consisted of a screening period, baseline/washout period, open-label phase, double-blind phase, and a follow-up visit. Subject participation in the study could continue for up to 16 weeks of treatment. Following a washout period of up to 28 days for other antidepressants, subjects with MDD and a MADRS total score >/=28 and a Clinical Global Impression-Severity (CGI-S) score >/=4 were enrolled on Day 1 into an open-label citalopram-only phase of the study. This phase lasted 8 weeks, with citalopram (CIT) dose increased from a once-daily dose of 20 mg (Day 1 through Week 4) to 40 mg (Week 4 through Week 8). A total of 579 subjects entered the open-label citalopram phase. At Week 8, subjects who tolerated 40 mg CIT, but whose MADRS score was reduced <50% from baseline and no lower than 17, and CGI-S≧4, were considered inadequate responders. These subjects (n=270) were randomized in a double-blind fashion to receive either placebo or TC-5214-23 as add-on therapy to continued CIT. The double-blind phase of the study also lasted 8 weeks (Week 8 to Week 16). Study drug, TC-5214-23 or placebo, was started at 2 mg daily (1 mg twice per day [BID] dosing), added on to continuing CIT (40 mg PO qd). After 2 weeks of treatment, the dose of TC-5214 could be increased to 4 mg (2 mg BID) or continued unchanged, with up-titration based upon good tolerability and inadequate therapeutic response. After a further 2 weeks, the dose of TC-5214 could be increased again to 8 mg (4 mg BID) if judged appropriate by the investigator, based upon good tolerability and inadequate therapeutic response. At any time during the double-blind phase of the study, placebo or TC-5214-23 could be reduced to the previous dose level following the emergence of unacceptable adverse events (AEs). […] At this follow-up, any signs or symptoms of relapse were evaluated. If a subject was prematurely discontinued from the study between Week 8 and Week 16 for any reason, the investigator was to make every effort to perform all evaluations as per protocol, assuming the subject had reached the end of the double-blind add-on treatment phase. These evaluations were to be made as soon as possible and within 2 weeks of discontinuation. […] There was no meaningful difference in results as a function of age, gender, site, or smoking status. With regard to efficacy endpoints, the following tables present efficacy used in the ITT (Intent-to-Treat) and PP (Per Protocol) populations unless otherwise specific. The primary inference was based upon Week 16 visit using the ITT population. Change from baseline was obtained by subtracting the baseline values from the individual on-treatment values. Change from Week 16 was obtained by subtracting the Week 16 values from the individual follow-up visit (Week 18/19) values. If either the baseline or Week 16 or on-treatment or follow-up value was missing, the change from baseline or Week 16 value was also set to missing. To account for missing data, the last observation carry forward (LOCF) method was used for the ITT and PP populations. […]

[1] = ITT Population, Double Blind Week 16 LOCF, change from Week 8 (double-blind baseline)
[2] = ITT Population, Double Blind Week 18 LOCF (Follow-up)
[3] = ITT and PP populations, result in words
[4] = PP Population, Double Blind Week 16 LOCF, change from Week 8 (double-blind baseline)
[5] = PP Population, Double Blind Week 18 LOCF (Follow-up)

## CNC1(C)C2CCC(C2)C1(C)C (stereo in doubt) [TC-5214, (S)—N,2,3,3-tetramethylnorbornan-2-amine]
[1]
  SDS change Adjusted Mean: −9.18
  SDS change Mean Difference between TC-5214 and Placebo: 4.60
[2]
  SDS change Adjusted Mean: −0.46
  SDS change Mean Difference between TC-5214 and Placebo: −0.23
[3]
  SDS individual items (Work-School; Social Life; Life-Home Responsibilities) change from baseline compared with placebo: statistically significant decreases (improvements)
  SDS score change from baseline compared with placebo: statistically significant decreases (improvements)
  SDS Difference vs placebo: −4.49 (−5.96, −3.01)
  SDS Adj. Mean change: −9.18 (0.53)
Listed as TC-5214 + CIT
  SDS Difference vs placebo: −4.49
  SDS Adj. Mean change: −9.18
[4]
  SDS change Adjusted Mean: −10.21
  SDS change Mean Difference between TC-5214 and Placebo: 4.86
[5]
  SDS change Adjusted Mean: −0.44
  SDS change Mean Difference between TC-5214 and Placebo: −0.20

From patent US20120190752A1, “EXO-S-MECAMYLAMINE METHOD, USE, AND COMPOUND FOR TREATMENT” (Targacept Inc., priority 2009, published 2012)
